Results reported in PubChem BioAssay AID1845215 (Molecular Pharmacology Branch, DTP, NCI, 2023).

Tested on: SW 1271 complex tumor spheroid viability
Assay: Anticancer human tumor SW 1271 cell line growth inhibition;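 also: spheroids exposed to agents for seven days before readout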;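 as to viability, T/C: percent of DMSO vehicle control luminescence so 100% = vehicle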
Conditions: for IC50: curve of first compound; for viability, T/C: stronger effect = lower value
Outline: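 Complex spheroids of malignant cells with endothelial cells and mesenchymal stem cells; agents alone or combined, from near clinical Cmax (or 10 microM if unknown) down in half-log steps, 0.25% DMSO final.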

[1] = second compound 1 µM, first compound 0.0316 µM
[2] = second compound 1 µM, first compound 0.1 µM
[3] = second compound 1 µM, first compound 0.316 µM
[4] = second compound 1 µM, first compound 1 µM
[5] = second compound 1 µM, first compound 3.16 µM
[6] = second compound 1 µM, first compound 10 µM
[7] = second compound 3.16 µM, first compound 0.0316 µM
[8] = second compound 3.16 µM, first compound 0.1 µM
[9] = second compound 3.16 µM, first compound 0.316 µM
[10] = second compound 3.16 µM, first compound 1 µM
[11] = second compound 3.16 µM, first compound 3.16 µM
[12] = second compound 3.16 µM, first compound 10 µM
[13] = second compound 10 µM, first compound 0.0316 µM
[14] = second compound 10 µM, first compound 0.1 µM
[15] = second compound 10 µM, first compound 0.316 µM
[16] = second compound 10 µM, first compound 1 µM
[17] = second compound 10 µM, first compound 3.16 µM
[18] = second compound 10 µM, first compound 10 µM
[19] = second compound 31.6 µM, first compound 0.0316 µM
[20] = second compound 31.6 µM, first compound 0.1 µM
[21] = second compound 31.6 µM, first compound 0.316 µM
[22] = second compound 31.6 µM, first compound 1 µM
[23] = second compound 31.6 µM, first compound 3.16 µM
[24] = second compound 31.6 µM, first compound 10 µM
[25] = second compound 100 µM, first compound 0.0316 µM
[26] = second compound 100 µM, first compound 0.1 µM
[27] = second compound 100 µM, first compound 0.316 µM
[28] = second compound 100 µM, first compound 1 µM
[29] = second compound 100 µM, first compound 3.16 µM
[30] = second compound 100 µM, first compound 10 µM

Row | Structure (SMILES) | IC50 (second compound 1 µM) [nM] | IC50 (second compound 3.16 µM) [nM] | IC50 (second compound 10 µM) [nM] | IC50 (second compound 31.6 µM) [nM] | IC50 (second compound 100 µM) [nM] | viability, T/C [1] [%] | viability, T/C [2] [%] | viability, T/C [3] [%] | viability, T/C [4] [%] | viability, T/C [5] [%] | viability, T/C [6] [%] | viability, T/C [7] [%] | viability, T/C [8] [%] | viability, T/C [9] [%] | viability, T/C [10] [%] | viability, T/C [11] [%] | viability, T/C [12] [%] | viability, T/C [13] [%] | viability, T/C [14] [%] | viability, T/C [15] [%] | other results
1 | CC1COCCN1c1cc(-c2ccnn2C)c2ccnc(-c3ccn[nH]3)c2n1 (stereo not given) + Cn1nnc2c(C(N)=O)ncn2c1=O | 67.3 | 70.1 | 67.8 | 38.2 | < 31.6 | 71.4 | 38.7 | 15.1 | 6.03 | 3.67 | 3.45 | 76.6 | 38.2 | 11.3 | 5.45 | 3.38 | 2.94 | 73.8 | 37.9 | 12.3 | viability, T/C [16]: 5.29%; viability, T/C [17]: 2.98%; viability, T/C [18]: 3.83%; viability, T/C [19]: 55.4%; viability, T/C [20]: 23.2%; viability, T/C [21]: 9.1%; viability, T/C [22]: 4.96%; viability, T/C [23]: 3.48%; viability, T/C [24]: 3.25%; viability, T/C [25]: 33.5%; viability, T/C [26]: 12.6%; viability, T/C [27]: 6.3%; viability, T/C [28]: 3.95%; viability, T/C [29]: 3.48%; viability, T/C [30]: 2.85%
2 | COc1cc(C)[nH]c(=O)c1CN1CCc2c(Cl)cc(C(OC)C3COC3)c(Cl)c2C1=O (stereo not given) + Cn1nnc2c(C(N)=O)ncn2c1=O | > 10000 | > 10000 | > 10000 | > 10000 | > 10000 | 92.5 | 90.5 | 91.2 | 86.1 | 77.5 | 76.7 | 98.1 | 90.2 | 90.3 | 94.4 | 85 | 82.3 | 98.2 | 93.5 | 96.1 | viability, T/C [16]: 83.8%; viability, T/C [17]: 87.8%; viability, T/C [18]: 81.4%; viability, T/C [19]: 97.1%; viability, T/C [20]: 89.8%; viability, T/C [21]: 99.3%; viability, T/C [22]: 100%; viability, T/C [23]: 88.5%; viability, T/C [24]: 80.2%; viability, T/C [25]: 88.7%; viability, T/C [26]: 96.3%; viability, T/C [27]: 84.2%; viability, T/C [28]: 80.7%; viability, T/C [29]: 77.3%; viability, T/C [30]: 76.1%
